According to PubChem BioAssay (NCI):
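Values below derive from 48-hour exposures of cells grown in 96-well plates, with endpoints linearly interpolated between the two concentrations bracketing the appropriate inhibition level. GI50 marks 50% less growth. TGI denotes the concentration required for complete inhibition of growth.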

Key:
Experiment in all cases: NCI anticancer screen, dose series, 48 h
[1] = test system: NCI/ADR-RES ovarian
[2] = test system: A498 renal
[3] = test system: HS 578T breast
[4] = test system: SN12C renal
[5] = test system: OVCAR-5 ovarian
[6] = test system: RXF 393 renal
[7] = test system: SK-MEL-5 melanoma
[8] = test system: SF-268 CNS
[9] = test system: SF-295 CNS
[10] = test system: HOP-92 NSCLC
[11] = test system: T-47D breast
[12] = test system: NCI-H23 lung
[13] = test system: ACHN renal
[14] = test system: U251 CNS
[15] = test system: SK-MEL-2 melanoma
[16] = test system: COLO 205 colon
[17] = test system: OVCAR-3 ovarian
[18] = test system: IGROV1 ovarian
[19] = test system: MALME-3M melanoma
[20] = test system: SK-MEL-28 melanoma
[21] = test system: MCF7 breast
[22] = test system: HOP-62 NSCLC
[23] = test system: NCI-H226 lung
[24] = test system: EKVX NSCLC
[25] = test system: SNB-75 CNS
[26] = test system: A549 NSCLC
[27] = test system: SW-620 colon
[28] = test system: M14 melanoma
[29] = test system: UACC-257 melanoma
[30] = test system: DU-145 prostate
[31] = test system: HCT-116 colon
[32] = test system: NCI-H460 lung
[33] = test system: RPMI-8226 leukemia
[34] = test system: OVCAR-8 ovarian
[35] = test system: HL-60(TB) leukemia
[36] = test system: MDA-MB-231 breast
[37] = test system: LOX IMVI melanoma
[38] = test system: UO-31 renal
[39] = test system: MOLT-4 leukemia
[40] = test system: NCI-H522 lung
[41] = test system: HCT-15 colon
[42] = test system: 786-0 renal
[43] = test system: KM12 colon
[44] = test system: CAKI-1 renal
[45] = test system: OVCAR-4 ovarian
[46] = test system: MDA-MB-435
[47] = test system: HCC-2998 colon
[48] = test system: SR leukemia
[49] = test system: UACC-62 melanoma
[50] = test system: BT-549 breast
[51] = test system: K-562 leukemia
[52] = test system: HT29 colon
[53] = test system: TK-10 renal
[54] = test system: SF-539 CNS
[55] = test system: SNB-19 CNS
[56] = test system: SK-OV-3 ovarian
[57] = test system: CCRF-CEM leukemia

In the case of `CC1(C)CC([P+](c2ccccc2)(c2ccccc2)c2ccccc2)=NN1`, the GI50 [1] is reported as > 100 µM, the TGI [1] is reported as > 100 µM and the GI50 [2] is reported as 4.24 µM. For the same compound, the TGI [2] was 35.7 µM, the GI50 [3] was 4.96 µM and the TGI [3] was > 100 µM. The GI50 [4] was 4.39 µM, the TGI [4] was > 100 µM and the GI50 [5] was 18.7 µM. The TGI [5] was > 100 µM, the GI50 [6] was 28.2 µM and the TGI [6] was > 100 µM. The GI50 [7] was 3.13 µM, the TGI [7] was 17.7 µM and the GI50 [8] was 5.09 µM. The TGI [8] was > 100 µM, the GI50 [9] was 8.68 µM and the TGI [9] was 43.9 µM. It also gave a GI50 [10] of 3.75 µM, a TGI [10] of 71.9 µM and a GI50 [11] of 0.91 µM. The TGI [11] was 8.44 µM, the GI50 [12] was 4.28 µM and the TGI [12] was > 100 µM. For the same compound, the GI50 [13] was 60.2 µM, the TGI [13] was > 100 µM and the GI50 [14] was 2 µM. For the same compound, the TGI [14] was > 100 µM, the GI50 [15] was 5.09 µM and the TGI [15] was > 100 µM. It also gave a GI50 [16] of 1.44 µM, a TGI [16] of 3.36 µM and a GI50 [17] of 2.18 µM. The TGI [17] was 73.7 µM, the GI50 [18] was 6.47 µM and the TGI [18] was > 100 µM. The GI50 [19] was 3.43 µM, the TGI [19] was > 100 µM and the GI50 [20] was 8.67 µM. For the same compound, the TGI [20] was > 100 µM, the GI50 [21] was 2.46 µM and the TGI [21] was > 100 µM. The GI50 [22] was 7.4 µM, the TGI [22] was > 100 µM and the GI50 [23] was 5.53 µM. The TGI [23] was 84.5 µM, the GI50 [24] was 2.42 µM and the TGI [24] was > 100 µM. The GI50 [25] was 5.3 µM, the TGI [25] was > 100 µM and the GI50 [26] was 5.1 µM. For the same compound, the TGI [26] was > 100 µM, the GI50 [27] was 4.57 µM and the TGI [27] was > 100 µM. The GI50 [28] was 11.4 µM, the TGI [28] was > 100 µM and the GI50 [29] was 2.82 µM. The TGI [29] was > 100 µM, the GI50 [30] was 4.34 µM and the TGI [30] was > 100 µM. The GI50 [31] was 3.04 µM, the TGI [31] was > 100 µM and the GI50 [32] was 6.09 µM. For the same compound, the TGI [32] was > 100 µM, the GI50 [33] was 4.41 µM and the TGI [33] was > 100 µM. The GI50 [34] was 5.92 µM, the TGI [34] was > 100 µM and the GI50 [35] was 1.91 µM. The TGI [35] was 9.19 µM, the GI50 [36] was 13.7 µM and the TGI [36] was > 100 µM. For the same compound, the GI50 [37] was 3.74 µM, the TGI [37] was > 100 µM and the GI50 [38] was > 100 µM. The TGI [38] was > 100 µM, the GI50 [39] was 6.03 µM and the TGI [39] was > 100 µM. For the same compound, the GI50 [40] was 2.52 µM, the TGI [40] was > 100 µM and the GI50 [41] was > 100 µM. For the same compound, the TGI [41] was > 100 µM, the GI50 [42] was 26.6 µM and the TGI [42] was > 100 µM. For the same compound, the GI50 [43] was 1.89 µM, the TGI [43] was 45.9 µM and the GI50 [44] was > 100 µM. The TGI [44] was > 100 µM, the GI50 [45] was 3.07 µM and the TGI [45] was > 100 µM. For the same compound, the GI50 [46] was 2.79 µM, the TGI [46] was > 100 µM and the GI50 [47] was 2.79 µM. For the same compound, the TGI [47] was > 100 µM, the GI50 [48] was 1.2 µM and the TGI [48] was 5.51 µM. For the same compound, the GI50 [49] was 3.17 µM, the TGI [49] was > 100 µM and the GI50 [50] was 1.03 µM. For the same compound, the TGI [50] was 4.42 µM, the GI50 [51] was 3.55 µM and the TGI [51] was > 100 µM. The GI50 [52] was 3.29 µM, the TGI [52] was > 100 µM and the GI50 [53] was 1.47 µM. The TGI [53] was 16.6 µM, the GI50 [54] was 6.13 µM and the TGI [54] was 97.3 µM. For the same compound, the GI50 [55] was 5.03 µM, the TGI [55] was > 100 µM and the GI50 [56] was 11.7 µM. The TGI [56] was 68.7 µM, the GI50 [57] was 8.36 µM and the TGI [57] was > 100 µM.
